From US9006394B2, “Peptide-presenting surfaces for long-term culture of pluripotent cells” (Wisconsin Alumni Research Foundation, priority 2008, dated 2015)
Ends that are not written are not given here.

Assays:
hESCs = assay: Long-term (3 months) culture on defined surfaces, markers of pluripotency; assay type: cell-based, human; conditions: 3 months of continuous passaging
Excerpt: Preferably, one spots ATs onto an inert background to form self-assembling monolayers (SAMs). See, e.g., Derda et al., supra; Derda R, et al., “Solid-phase synthesis of alkanethiols for the preparation of self-assembled monolayers,” Langmuir 23:11164-11167 (2007); and Houseman B & Mrksich M, “Efficient solid-phase synthesis of peptide-substituted alkanethiols for the preparation of substrates that support the adhesion of cells,” J. Org. Chem. 63:7552-7555 (1998), each of which is incorporated herein by reference as if set forth in its entirety. For example, a background can be formed of perfluoro-AT, which can be both cytophobic (i.e., repel cells) and solvophobic (i.e., repel solvents). First, a gold-coated surface can be coated with a perfluoro-AT monolayer, either leaving areas (i.e., holes) in the monolayer for the elements of an array or creating areas in the monolayer for the elements of the array in a subsequent step. Then, ATs coupled to a peptide, such as an GBP as described herein, can be attached to the substrate in the holes to complete the monolayer and to present ligands for pluripotent cell attachment to the surface. Surface density of the GBPs can be controlled using mixed SAMs of peptide-ATs and non-adhesive glucamine-ATs. […]
Flow cytometry data was obtained using a FACSCalibur™ (BD Biosciences) and analyzed using FlowJo Software (Tree Star, Inc.; Ashland, Oreg.). […]

[1] = test system: hES cells (H9 and H13) and vector-free iPS cells (DF19-9); assay: Cell growth over two passages (Cell Counting Kit-8); assay type: cell-based, human
Description: hESCs (H9) were cultured on Matrigel, vitronectin, polylysine, […] (SEQ ID NO: 1), or KGRGDS (SEQ ID NO: 5) over two passages in mTeSR media supplemented with 5 μm ROCK inhibitor. Cell counts were calculated at each time point using Cell Counting Kit-8 (Dojindo Molecular Technologies, Inc., Rockville, Md.).

“GKKQRFRHRNRKG (not fully specified (C-terminus); listed as Homo sapiens)” was tested, and the “markers of pluripotency after 3 months of culture” value (hESCs) was “maintained high levels of markers of pluripotency”, the “markers of pluripotency after 3 months of culture” value (hESCs; listed as SEQ ID NO:1) was “maintained at high levels” and the “plating efficiency after 24 hours” value ([1]; 24 hours) was “equivalent”. The “cell numbers after each passage” value ([1]; two passages, mTeSR with ROCK inhibitor) was “Increased cell numbers”.
